Reference: patent US20100273203A1 (priority 2009, published 2010)
Where two headings read alike, the source gives them in different places.

How the values were obtained:
[1] = LC-MS/MS urinary metabolic profile of patients receiving warfarin; settings: for % R / % S (proportion in (S)-enantiomeric form) / % conjugated (proportion glucuronidated) / urinary concentration: urine; for urinary concentration: free and conjugated
Excerpt: All chemicals used in this study were of at least reagent grade. Unless otherwise specified, all chemicals and reagents were purchased from either Sigma-Aldrich (St. Louis, Mo.) or Thermo Fisher Scientific (Waltham, Mass.). […] Ethyl alcohol (100%) was purchased from AAPER (Shelbyville, Ky.). Re-combinant CYP2C9*1, CYP3A4, CYP1A2, and CYP2C19 were expressed in baculovirus-infected insect cells and purchased from BD Biosciences (San Jose, Calif.). Commercially available urine specimens from three females (F84, F85, and F87) were provided by the Emergency Response and Air Toxicants Branch, Division of Laboratory Science National Center for Environmental Health Centers for Disease Control and Prevention (DeKalb County, Ga.). Patient studies were conducted under IRB-approved protocols, and all patients signed informed consent documentation.
This analytical phase was accomplished by reverse-phase HPLC using a 4.6 mm×150 mm C18 Zorbax Eclipse 5 μm XDB-C18 column provided by Agilent (Santa Clara, Calif.). The operating temperature was 40° C., and the sample injection volume was 5.0 μL. HPLC mobile phases consisted H2O (0.1% acetic acid v/v) (A) and methanol (0.1% acetic acid v/v) (B). The flow rate was 1 mL/min. […] The total run time per sample was 10 min. Specific MS/MS experimental conditions used in this study are noted in Table 1.
To determine the relative abundance of the (R)-and (S)-enantiomers of each metabolite, a 4.6 mm×25 cm Chirobiotic V5 μm column supplied by Supelco (Bellefonte, Pa.) was incorporated during the second analytical phase. Mobile phases consisted of H2O (0.1% acetic acid v/v) (A) and acetonitrile (0.1% acetic acid v/v) (B) with a flow rate of 800 μL/min. Enantiomeric separations were accomplished under isocratic conditions (80% A and 20% B). The sample injection volume was 15.0 μL. Enantiomeric MS/MS analyses were performed in negative ion mode by electrospray ionization (ESI) using a Turbo IonSpray source. A total run time of 20 min was required for adequate resolution. Specific MS/MS experimental conditions used in this study are noted in the Table 2.
Each response was normalized to that of the internal standard, 7-hydroxycoumarin (10 μM). […] Measurements of these three metabolites were calculated by taking the difference of the amount measured in the first analytical phase, which contained both (R)-and (S) isomers from the amount of the (S)-isomer measured in the second analytical phase (eq 3). Glucuronidated metabolites were measured by incubating 250 μL of urine with 2000 units of GUS in 100 mM sodium acetate buffer, pH 5.0. The final volume for each of these reactions was 1 mL. Control reactions omitting GUS were included with each sample set. Reactions were incubated overnight at 37° C., after which they were stored at −80° C. Immediately before analysis, both samples were diluted with an equal volume of ethanol containing 7-hydroxycoumarin (10 μM final concentration). The difference between GUS-treated samples and controls represented the amount of glucuronidated metabolites present.

CYP2C9 [2] = target: T1, CYP2C9 (Homo sapiens, UniProt P11712); settings: read-out: reported Km; cited from earlier work
CYP1A2 [3] = target: T2, CYP1A2 (Homo sapiens, UniProt P05177); experiment: biochemical
T2 sequence (P05177 1-516): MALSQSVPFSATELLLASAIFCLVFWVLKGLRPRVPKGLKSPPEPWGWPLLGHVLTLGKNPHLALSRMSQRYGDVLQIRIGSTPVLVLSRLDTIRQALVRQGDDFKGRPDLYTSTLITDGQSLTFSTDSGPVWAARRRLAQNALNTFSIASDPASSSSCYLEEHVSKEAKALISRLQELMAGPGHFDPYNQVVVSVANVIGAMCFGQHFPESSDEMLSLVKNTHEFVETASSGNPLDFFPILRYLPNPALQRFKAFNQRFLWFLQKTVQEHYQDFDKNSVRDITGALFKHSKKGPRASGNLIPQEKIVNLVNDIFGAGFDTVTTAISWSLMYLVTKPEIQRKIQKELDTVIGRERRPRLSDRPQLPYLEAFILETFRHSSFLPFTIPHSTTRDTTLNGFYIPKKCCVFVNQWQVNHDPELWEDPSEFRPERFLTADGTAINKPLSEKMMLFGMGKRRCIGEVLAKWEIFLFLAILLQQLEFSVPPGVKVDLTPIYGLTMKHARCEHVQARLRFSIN

UGT1A10 = UGT1A10 (Homo sapiens, UniProt Q9HAW8); settings: glucuronidation; racemic OHWars
Excerpt: (§1) The characterization of hepatic and extrahepatic glucuronidation may be made based on glucuronidation studies with 100 commercially available HLM and 100 intestinal microsomal preparations available in our laboratory. […] Both racemic mixtures and separated R and S enantiomers may be assayed. […] Activities of extrahepatic (UGT1A8 and UGT1A10) and hepatic (UGT1A1, UGT1A3, and UGT1A9) isoforms may be compared to that of their respective microsomal preparations, and assign the contribution of specific UGTs to product formation by the human samples.

UGT1A8 = UGT1A8 (Homo sapiens, UniProt Q9HAW9); settings: glucuronidation; racemic OHWars
Excerpt: as §1

UGT1A9 = UGT1A9 (Homo sapiens, UniProt O60656); settings: glucuronidation; racemic OHWars
Excerpt: as §1

CYP2C9 [4] = target: T1, CYP2C9; settings: read-out: IC50 toward recombinant CYP2C9 activity; P450-Glo, 50 μM Luciferin H; racemic compounds
Experimental: Hydroxywarfarins were screened for inhibitory potential toward recombinant CYP2C9 using the Promega (Madison, Wis.) CY2C9 P450-Glo™ Assay using the manufacturer's protocol. These IC50 studies were analyzed on a PerkinElmer Victor^3V™ 1420 Multilabel Counter. Recombinant CYP2C9, 50 nM, was incubated with 50 μM Luciferin H, and six concentrations of each hydroxywarfarin from approximately 10 nM to 4 mM final concentration, as optimized for each compound. The appropriate volume of hydroxywarfarin stocks in 100% ethanol were added to each well prior to addition of the substrate and enzyme, and the ethanol was allowed to evaporate at room temperature to minimize solvent effects on CYP2C9 activity. A final DMSO concentration of 1% was present in the reactions due to the P450-Glo Luciferin H. The reaction was initiated upon addition of an NADPH regenerating solution (BD Biosciences) and quenched with a luciferase quench (Promega) at 30 min.

[5] = target: CYP2C9 present in the human liver microsomes (Homo sapiens, UniProt P11712); settings: S-warfarin metabolism; 7-hydroxywarfarin formation as marker
Experimental: (§2) For each hydroxywarfarin, at least 4 independent experimental replicates were performed.
(§3) MS/MS experimental conditions was used as described previously (6).
(§4) The most probable inhibition mechanism for recombinant CYP2C9 and human liver microsome reactions was identified using DynaFit ver. 3.28 (Biokin, Ltd) (20). Data from each set of hydroxywarfarin experiments were fit to traditional reversible inhibition mechanisms (competitive, uncompetitive, noncompetitive, or mixed). The respective kinetic parameters (Ki and Ki′) were set as variables, while the kinetic parameters (Vmax and Km) were constants based on values obtained from uninhibited reactions. The most probable mechanism was then identified using the Akaike Information Criterion (AICc) for model discrimination (21).

CYP2C9*1 [6] = target: T3, CYP2C9*1 (Homo sapiens, UniProt P11712); settings: S-warfarin metabolism, 7-hydroxywarfarin formation as marker
Experimental: as §2, §3, §4

CYP1A2 [7] = target: T2, CYP1A2; settings: read-out: IC50 for CYP marker reaction; P450-Glo marker reaction
CYP2C9*1 [8] = target: T3, CYP2C9*1; settings: read-out: IC50 for CYP marker reaction; P450-Glo marker reaction
CYP3A4 [9] = target: T4, CYP3A4 (Homo sapiens, UniProt P08684); settings: read-out: IC50 for CYP marker reaction; P450-Glo marker reaction
plasma proteins = settings: cited from earlier work
CYP2C9 [10] = target: T1, CYP2C9; settings: not metabolized by CYP2C9; cited from earlier work
CYP3A4 [11] = target: T4, CYP3A4; experiment: Steady-state metabolism of R- and S-warfarin by recombinant CYP3A4
Experimental: (§5) Reactions were initiated upon addition of an NADPH regenerating system [2 μU μL-1 glucose 6-phosphate dehydrogenase, 10 mM glucose 6-phosphate, 2 mM MgCl2, 1 mM NADP^+]. […] The quenched reactions were centrifuged and the resulting supernatant containing substrate and products resolved and quantified by UPLC-MS/MS. Each experiment was performed in at least 4 independent experimental replicates.
(§6) The flow rate was constant at 250 μL/min. […] Electrospray conditions were as follows: spray voltage of 4500 V, sheath gas pressure 45, auxiliary gas pressure 20, and collision energy of 15-15 eV (compound specific).
(§7) Final metabolite concentrations were calculated from the ratio of metabolite area to internal standard area in the sample and compared to calibration curves as determined from the UPLC-MS/MS method. All compounds were quantified relative to authentic standards. The resulting kinetic data were analyzed with GraphPad Prism 5® software. Non-linear regression analysis was used to fit steady-state data to the Michaelis-Menten equation to determine the Vmax and Km parameters.

CYP3A7 = CYP3A7 (Homo sapiens, UniProt P24462); experiment: Steady-state metabolism of R- and S-warfarin by recombinant CYP3A7
Experimental: as §5, §6, §7

[12] = 10-hydroxywarfarin formation, 37° C, pH 7.4

T4 sequence (P08684 whole entry): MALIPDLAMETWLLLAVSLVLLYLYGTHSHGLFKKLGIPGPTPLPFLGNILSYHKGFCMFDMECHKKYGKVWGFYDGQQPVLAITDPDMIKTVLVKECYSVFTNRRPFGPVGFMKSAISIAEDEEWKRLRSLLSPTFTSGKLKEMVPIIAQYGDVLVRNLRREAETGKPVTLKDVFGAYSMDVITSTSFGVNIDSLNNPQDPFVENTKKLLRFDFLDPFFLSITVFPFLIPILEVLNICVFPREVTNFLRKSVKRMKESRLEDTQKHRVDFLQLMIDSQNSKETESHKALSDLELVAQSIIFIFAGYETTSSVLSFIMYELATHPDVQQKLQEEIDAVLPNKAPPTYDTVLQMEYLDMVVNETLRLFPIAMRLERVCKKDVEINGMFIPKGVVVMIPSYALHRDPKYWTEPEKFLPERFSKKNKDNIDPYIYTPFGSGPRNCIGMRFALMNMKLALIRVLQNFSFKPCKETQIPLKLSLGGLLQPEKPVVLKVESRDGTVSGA
T1 sequence (P11712 whole entry): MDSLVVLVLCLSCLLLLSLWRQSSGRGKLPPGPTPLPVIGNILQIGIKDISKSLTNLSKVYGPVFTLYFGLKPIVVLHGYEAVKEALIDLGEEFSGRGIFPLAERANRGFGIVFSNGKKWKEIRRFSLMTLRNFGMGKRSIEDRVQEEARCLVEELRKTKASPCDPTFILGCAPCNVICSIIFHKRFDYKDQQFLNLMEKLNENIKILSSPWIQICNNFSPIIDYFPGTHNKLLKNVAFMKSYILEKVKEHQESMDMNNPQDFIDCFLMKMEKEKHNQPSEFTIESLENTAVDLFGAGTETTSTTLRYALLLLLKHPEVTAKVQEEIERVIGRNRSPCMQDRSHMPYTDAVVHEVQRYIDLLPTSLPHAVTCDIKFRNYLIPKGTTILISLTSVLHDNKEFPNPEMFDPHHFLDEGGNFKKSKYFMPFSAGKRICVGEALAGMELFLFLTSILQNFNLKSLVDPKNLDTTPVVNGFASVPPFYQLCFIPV
CYP3A7, sequence (P24462 whole entry): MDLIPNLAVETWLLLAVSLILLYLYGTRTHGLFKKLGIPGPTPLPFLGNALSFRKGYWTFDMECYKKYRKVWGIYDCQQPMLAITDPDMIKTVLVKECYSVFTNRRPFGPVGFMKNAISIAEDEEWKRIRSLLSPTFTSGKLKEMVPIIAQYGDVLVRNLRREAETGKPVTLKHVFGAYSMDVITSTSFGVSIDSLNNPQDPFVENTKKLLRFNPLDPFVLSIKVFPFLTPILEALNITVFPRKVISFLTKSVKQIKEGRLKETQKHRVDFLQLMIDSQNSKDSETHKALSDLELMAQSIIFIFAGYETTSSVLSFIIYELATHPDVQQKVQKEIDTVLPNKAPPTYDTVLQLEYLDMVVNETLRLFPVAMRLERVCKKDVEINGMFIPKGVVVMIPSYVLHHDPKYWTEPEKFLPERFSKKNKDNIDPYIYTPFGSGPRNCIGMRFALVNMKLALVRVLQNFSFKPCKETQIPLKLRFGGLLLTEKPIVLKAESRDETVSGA
UGT1A8, sequence (Q9HAW9 26-530): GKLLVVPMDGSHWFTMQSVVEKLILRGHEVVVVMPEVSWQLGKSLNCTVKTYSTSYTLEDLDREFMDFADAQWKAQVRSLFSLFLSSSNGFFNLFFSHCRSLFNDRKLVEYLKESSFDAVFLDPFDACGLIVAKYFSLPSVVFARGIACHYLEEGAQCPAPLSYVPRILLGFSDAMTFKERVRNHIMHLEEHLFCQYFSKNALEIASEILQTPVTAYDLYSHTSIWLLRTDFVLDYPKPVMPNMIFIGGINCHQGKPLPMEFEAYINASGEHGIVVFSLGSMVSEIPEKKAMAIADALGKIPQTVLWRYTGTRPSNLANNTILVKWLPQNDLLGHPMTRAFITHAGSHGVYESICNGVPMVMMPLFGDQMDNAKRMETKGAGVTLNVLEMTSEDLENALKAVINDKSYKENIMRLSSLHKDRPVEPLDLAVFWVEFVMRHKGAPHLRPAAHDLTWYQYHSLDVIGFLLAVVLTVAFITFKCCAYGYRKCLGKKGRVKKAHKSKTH
UGT1A9, sequence (O60656 26-530): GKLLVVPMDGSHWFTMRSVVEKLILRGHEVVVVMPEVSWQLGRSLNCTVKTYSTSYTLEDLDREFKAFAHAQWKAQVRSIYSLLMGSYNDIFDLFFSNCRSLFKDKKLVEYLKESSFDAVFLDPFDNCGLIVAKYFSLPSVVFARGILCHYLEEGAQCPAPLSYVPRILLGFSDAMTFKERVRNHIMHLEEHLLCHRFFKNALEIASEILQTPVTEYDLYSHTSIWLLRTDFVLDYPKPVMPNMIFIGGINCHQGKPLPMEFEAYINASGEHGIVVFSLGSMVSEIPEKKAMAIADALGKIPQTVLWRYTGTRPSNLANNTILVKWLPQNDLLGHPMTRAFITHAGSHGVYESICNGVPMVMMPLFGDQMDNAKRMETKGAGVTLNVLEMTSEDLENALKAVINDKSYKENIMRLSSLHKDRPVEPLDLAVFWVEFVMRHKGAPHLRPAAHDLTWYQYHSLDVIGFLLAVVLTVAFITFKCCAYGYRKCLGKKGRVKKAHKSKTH
UGT1A10, sequence (Q9HAW8 26-530): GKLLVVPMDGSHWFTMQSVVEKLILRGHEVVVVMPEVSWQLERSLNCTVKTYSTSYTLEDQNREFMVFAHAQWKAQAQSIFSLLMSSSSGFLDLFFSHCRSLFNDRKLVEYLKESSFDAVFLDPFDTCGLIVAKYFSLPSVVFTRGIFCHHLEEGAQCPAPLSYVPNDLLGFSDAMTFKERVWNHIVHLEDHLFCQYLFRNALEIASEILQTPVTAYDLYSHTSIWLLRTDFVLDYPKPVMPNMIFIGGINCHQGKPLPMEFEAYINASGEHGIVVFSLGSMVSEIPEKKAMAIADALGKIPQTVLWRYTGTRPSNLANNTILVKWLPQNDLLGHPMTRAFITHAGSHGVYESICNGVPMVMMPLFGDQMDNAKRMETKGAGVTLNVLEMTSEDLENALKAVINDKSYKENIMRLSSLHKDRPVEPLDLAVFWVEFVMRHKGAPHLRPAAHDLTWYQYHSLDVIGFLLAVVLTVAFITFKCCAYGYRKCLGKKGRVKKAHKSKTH
CYP2C9 present in the human liver microsomes, sequence (P11712 whole entry): as the sequence (P11712 whole entry) above

## CC(=O)CC(c1ccccc1)c1c(O)c2ccccc2oc1=O (racemic) [WAR, warfarin]
[1]; female, human, in vivo
  individual concentrations in urine: 10 to 200 nM
CYP2C9 [2]
  Km: 2.6 µM
CYP1A2 [3]
  IC50: 740 µM

## CC(=O)CC(c1ccccc1)c1c(O)c2cccc(O)c2oc1=O (stereo not shown) [8-OH-WAR, 8-hydroxywarfarin]
[1]; patient F84
  % R: 100%
  % S (proportion in (S)-enantiomeric form): 0%
  % conjugated (proportion glucuronidated): 31%
  urinary concentration: 111 nM
[1]; patient F85
  % R: 98%
  % S (proportion in (S)-enantiomeric form): 2%
  % conjugated (proportion glucuronidated): 53%
  urinary concentration: 109 nM
[1]; patient F87
  % R: 69%
  % S (proportion in (S)-enantiomeric form): 31%
  % conjugated (proportion glucuronidated): 7%
  urinary concentration: 231 nM
UGT1A10
  Km: 383 ± 81 µM
  Vmax: 25 ± 2 nmol/mg protein/min
UGT1A8
  Km: 206 ± 70 µM
  Vmax: 1.5 ± 0.1 nmol/mg protein/min
UGT1A9
  Km: 107 ± 36 µM
  Vmax: 1.7 ± 0.1 nmol/mg protein/min
CYP2C9 [4]
  IC50: 16 µM
[5]
  Ki: 13 µM
  Mechanism of inhibition: Competitive
CYP2C9*1 [6]
  Ki: 21 µM
  Mechanism of inhibition: Mixed
CYP2C9*1 [6]; mixed inhibition
  Ki: 103 µM
CYP1A2 [7]
  IC50: 830 µM
CYP2C9*1 [8]
  IC50: 17.2 µM
CYP3A4 [9]
  IC50: 240 µM
Plasma proteins
  plasma protein binding affinity relative to warfarin: three- to four-fold lower affinity

## CC(=O)C[C@H](c1ccccc1)c1c(O)c2ccccc2oc1=O [R-warfarin, (R) warfarin]
CYP2C9 [10]
  Ki: ~8 µM
CYP3A4 [11]; 4′-hydroxywarfarin formation
  Km: 36 µM
  Vmax: 98 pmol product/min/nmol P450
CYP3A4 [11]; 10-hydroxywarfarin formation
  Km: 16 µM
CYP3A4 [11]; [12]
  Vmax: 1055 pmol product/min/nmol P450
CYP3A7; 4′-hydroxywarfarin formation
  Km: 1390 µM
  Vmax: 260 pmol product/min/nmol P450
CYP3A7; 10-hydroxywarfarin formation
  Km: 54 µM
CYP3A7; [12]
  Vmax: 116 pmol product/min/nmol P450
